Measured values published in patent US11730717B1, “Melanin-inspired antimicrobial” (The Board of Regents for the Oklahoma Agricultural and …, priority 2020, dated 2023).

How the values were obtained:
Assay in all cases: Disc agar diffusion assay
Format in all cases: cell-based
[1] = system: Staphylococcus aureus SFL 64
Description: (§1) As a further test of an embodiment, the antibacterial properties of EIPE-1 were tested across a large panel of organisms. EIPE-1 was dissolved in DMSO, impregnated onto sterile filter paper disks, and DMSO served as the untreated control according to the following procedure: • 1. Prepare a 2.5 μg/μL stock solution of EIPE-1 by micro pipetting 200 μL of DMSO into 2.0 mL Eppendorf Tube containing 0.5 mg of EIPE-1. Dissolve with vortex agitation and store at 4° C. • 2. Use forceps to pick up sterile 6.0 mm blank paper disks. Make sure to touch only one side of disc as lightly as possible. While holding blank paper disc, deliver 10.0 μL of the 2.5 μg/μL EIPE-1 solution by touching the micropipette tip to the center of the blank paper disc. Lean the impregnated disc up against the side of a small sterile glass petri dish. Follow same procedure for DMSO control. Allow disks several hours to dry under flowing sterile air. • 3. Inoculate starter cultures using cells from working culture cultivated on Mueller-Hinton Agar (MHA; Difco Laboratories). Starters consist of ˜20 mL of Mueller-Hinton Broth (MHB; Difco Laboratories) in 125-mL culture flasks. Incubate starter cultures in an Excella E24 Benchtop Incubator Shaker (New Brunswick Scientific Co., Inc., Edison, N.J., USA) at 37° C. and 180 rpm for 15-18 hours. • 4. Pour at least 5.0 mL of NMB into 18-mL Kimax tubes. Use a Pasteur pipette to deliver enough of the starter culture cell suspension to reach an optical density (OD620) of 0.025 (Spectronic™ 20 optical spectrophotometer; Thermo Electron Corp., Madison, Wis., USA). Ensure that both transmittance and absorbance are set to 0.0 using a blank NMB sample. Incubate in rotary shaking incubator at 37° C. and 180 rpm until optical density reaches 0.1. • 5. Deliver 100 μL of test culture to the middle of a small 100 mm×15 mm Petri dish containing ˜⅛ in thickness of MHA. • 6. Saturate a sterile cotton swab with MHB by dipping the cotton swab into KIMAX® tube with MHB and then touch the swab to the north, south, east, and west side of the KIMAX® tube to remove excess broth. • 7. Streak the inoculum as follows: • a. Start in the center and make four straight lines to the 12, 3, 6, and 9 o'clock position on the petri dish. • b. Start at the 12 o'clock position and streak side to side all the way down the plate to the 6 o'clock position. […] Rotate the petri dish 90° and complete the same side to side streak all the way down the petri dish. • d. Complete step c. twice more. • e. Rotate petri dish 45° and complete the side-to-side streak. • f. Rotate petri dish 90° and complete the side-to-side streak. • 8. Use sterile forceps to transfer the DMSO control paper disc onto the agar surface and pat the paper disc down to ensure flush contact. Use the same technique to deliver EIPE-1 paper disc. • 9. Place petri dish at 4° C. for 1.0 hour to allow EIPE-1 diffusion in the absence of growth. • 10. Incubate petri dish at 37° C. for 18 hours. • 11. Observe for zones of growth inhibition surrounding disks. Measure diameter with electronic caliper and subtract 6.0-mm disc diameter. Results • a) Each organism was initially tested once to serve as a screen.

[2] = system: Serratia odorifera ATCC 53077; settings: Group 1: Gram-negative organisms
Description: as §1

[3] = system: Serratia fonticola ATCC 9844; settings: Group 1: Gram-negative organisms
Description: as §1

[4] = system: Staphylococcus epidermidis
Description: as §1

[5] = system: Micrococcus luteus
Description: as §1

[6] = system: Staphylococcus aureus ATCC 29213
Description: as §1

[7] = system: Serratia entomophila ATCC 43705; settings: Group 1: Gram-negative organisms
Description: as §1

[8] = system: Serratia plymuthica ATCC 183; settings: Group 1: Gram-negative organisms
Description: as §1

[9] = system: Serratia marcescens ATCC 13880; settings: Group 1: Gram-negative organisms
Description: as §1

[10] = system: Serratia marcescens db11; settings: Group 1: Gram-negative organisms
Description: as §1

[11] = system: Pasteurella moltocida P-1581; settings: Group 1: Gram-negative organisms
Description: as §1

[12] = system: Staphylococcus aureus SFL 8
Description: as §1

[13] = system: Bacillus cereus
Description: as §1

[14] = system: Enterococcus faecalis; settings: Group 2: Gram-positive organisms
Description: as §1

[15] = system: Serratia marcescens 8100; settings: Group 1: Gram-negative organisms
Description: as §1

[16] = system: Pseudomonas aeruginosa ATCC 27853; settings: Group 1: Gram-negative organisms
Description: as §1

[17] = system: Serratia rubidaea ATCC 27593; settings: Group 1: Gram-negative organisms
Description: as §1

[18] = system: Lactococcus lactis
Description: as §1

[19] = system: Escherichia coli ATCC 25922; settings: Group 1: Gram-negative organisms
Description: as §1

[20] = system: Escherichia coli K12413; settings: Group 1: Gram-negative organisms
Description: as §1

[21] = system: Deinoccus radiophilus; settings: Group 2: Gram-positive organisms
Description: as §1

[22] = system: Staphylococcus aureus T-5706
Description: as §1

[23] = system: Serratia marcescens CO1-A; settings: Group 1: Gram-negative organisms
Description: as §1

[24] = Group 3: Gram-positive organisms
[25] = Group 2: Gram-positive organisms

COC(=O)c1cc2c(C#Cc3ccc(OCCC[N+](C)(C)C)cc3)c(OC)c(OC)c(C#Cc3ccc(OCCC[N+](C)(C)C)cc3)c2n1C [EIPE-1, 3,3′-((((5,6-dimethoxy-2-(methoxycarbonyl)-1-methyl-1H-indole-4,7-diyl)bis(ethyne-2,1-diyl))bis(4,1-phenylene))bis(oxy))bis(N,N,N-trimethylpropan-1-aminium) iodide]
susceptibility group in disc diffusion screen [1, 24]: susceptible
zone of inhibition at 25 µg/disc ([1]; Staphylococcus aureus, SFL64, S. aureus SFL 64, 25 μg per disk, zone minus disk diameter (6.0mm), read-out: Inhibition Zone Diameter (mm) ± SD): 2.5 ± 1.5 mm
zone of inhibition at 250 µg/disc ([1]; Staphylococcus aureus, SFL64, S. aureus SFL 64, 250 μg per disk, zone minus disk diameter (6.0mm), read-out: Inhibition Zone Diameter (mm) ± SD): 2.5 ± 0.2 mm
susceptibility group in disc diffusion screen [2]: resistant
susceptibility group in disc diffusion screen [3]: resistant
susceptibility group in disc diffusion screen [4, 24]: susceptible
zone of inhibition at 25 µg/disc ([4]; Staphylococcus epidermidis, S. epidermidis, 25 μg per disk, zone minus disk diameter (6.0mm), read-out: Inhibition Zone Diameter (mm) ± SD): 2.6 ± 0.3 mm
zone of inhibition at 250 µg/disc ([4]; Staphylococcus epidermidis, S. epidermidis, 250 μg per disk, zone minus disk diameter (6.0mm), read-out: Inhibition Zone Diameter (mm) ± SD): 3.3 ± 0.5 mm
susceptibility group in disc diffusion screen [5, 25]: resistant
zone of inhibition at 25 µg/disc ([5]; Micrococcus luteus, M. luteus, 25 μg per disk, zone minus disk diameter (6.0mm), read-out: Inhibition Zone Diameter (mm) ± SD): 1 ± 1 mm
zone of inhibition at 250 µg/disc ([5]; Micrococcus luteus, M. luteus, 250 μg per disk, zone minus disk diameter (6.0mm), read-out: Inhibition Zone Diameter (mm) ± SD): 2.2 ± 1.9 mm
susceptibility group in disc diffusion screen [6, 24]: susceptible
zone of inhibition at 25 µg/disc ([6]; Staphylococcus aureus, ATCC29213, S. aureus ATCC 29213, 25 μg per disk, zone minus disk diameter (6.0mm), read-out: Inhibition Zone Diameter (mm) ± SD): 2.2 ± 0.6 mm
zone of inhibition at 250 µg/disc ([6]; Staphylococcus aureus, ATCC29213, S. aureus ATCC 29213, 250 μg per disk, zone minus disk diameter (6.0mm), read-out: Inhibition Zone Diameter (mm) ± SD): 2.9 ± 0.3 mm
susceptibility group in disc diffusion screen [7]: resistant
susceptibility group in disc diffusion screen [8]: resistant
susceptibility group in disc diffusion screen [9]: resistant
susceptibility group in disc diffusion screen [10]: resistant
susceptibility group in disc diffusion screen [11]: resistant
susceptibility group in disc diffusion screen [12, 24]: susceptible
zone of inhibition at 25 µg/disc ([12]; Staphylococcus aureus, SFL8, S. aureus SFL 8, 25 μg per disk, zone minus disk diameter (6.0mm), read-out: Inhibition Zone Diameter (mm) ± SD): 2.4 ± 1.3 mm
zone of inhibition at 250 µg/disc ([12]; Staphylococcus aureus, SFL8, S. aureus SFL 8, 250 μg per disk, zone minus disk diameter (6.0mm), read-out: Inhibition Zone Diameter (mm) ± SD): 2.4 ± 0.3 mm
zone of inhibition at 25 µg/disc ([13]; Bacillus cereus, B. cereus, 25 μg per disk, zone minus disk diameter (6.0mm), read-out: Inhibition Zone Diameter (mm) ± SD): 0 mm
susceptibility group in disc diffusion screen [13, 25]: resistant
susceptibility group in disc diffusion screen [14]: resistant
susceptibility group in disc diffusion screen [15]: resistant
susceptibility group in disc diffusion screen [16]: resistant
susceptibility group in disc diffusion screen [17]: resistant
susceptibility group in disc diffusion screen [18, 25]: resistant
zone of inhibition at 25 µg/disc ([18]; Lactococcus lactis, L. lactis, 25 μg per disk, zone minus disk diameter (6.0mm), read-out: Inhibition Zone Diameter (mm) ± SD): 0.4 ± 0.6 mm
susceptibility group in disc diffusion screen [19]: resistant
susceptibility group in disc diffusion screen [20]: resistant
susceptibility group in disc diffusion screen [21]: resistant
susceptibility group in disc diffusion screen [22, 24]: susceptible
zone of inhibition at 25 µg/disc ([22]; Staphylococcus aureus, T5706, S. aureus T-5706, 25 μg per disk, zone minus disk diameter (6.0mm), read-out: Inhibition Zone Diameter (mm) ± SD): 2.1 ± 0.3 mm
zone of inhibition at 250 µg/disc ([22]; Staphylococcus aureus, T5706, S. aureus T-5706, 250 μg per disk, zone minus disk diameter (6.0mm), read-out: Inhibition Zone Diameter (mm) ± SD): 2.2 ± 0.2 mm
susceptibility group in disc diffusion screen [23]: resistant
